In patent US10052304B2, “Compositions and methods for cancer therapy” (UNIVERSITY OF IOWA RESEARCH FOUNDATION, priority 2015, dated 2018):

Columns and labels:
NCI-H292 cells = test: Clonogenic survival assay, NCI-H292 NSCLC cells; format: cell-based, human; details: for effect of the agent on ascorbate toxicity (clonogenic survival): agent added before and/or during 1 h ascorbate exposure; for effect of the intracellular agent on ascorbate toxicity (clonogenic survival): 3 h pre-incubation, washed prior to ascorbate ('intracellular'), 200 μM DFO/1 mM DTPA, 1 mM EDTA or 250 μM FAS
Description: (§1) Treatment conditions for individual experiments are as described in the figure legends and summarized in the Supplemental Experimental Procedures.
(§2) 1-2×10^5 cells were plated in 60 mm cell culture dishes and grown in their respective media for 48 h before exposed to experimental conditions. […] For AdGPx1 experiments, cells were supplemented with 50 nM sodium selenite following transduction and throughout clonogenic growth. […] After treatment, cells were washed with PBS and clonogenic assay was completed in their respective media. Briefly, floating and attached cells were collected and total cells per plate were counted. An experimentally derived number of cells were plated into each well of a 6-well cell culture plate in their respective media. For HEL92.1.7 suspension cells, cells were seeded in a top layer of 0.4% (w/v) agarose to allow for quantifiable colony formation. […] Normalized survival fractions were calculated by comparing plating efficiencies of each treatment group against the control group within a given experiment.

H1299 cells = test: Clonogenic survival assay, H1299 NSCLC cells; format: cell-based, human; details: agent added before and/or during 1 h ascorbate exposure
Description: as §1, §2

[1] = tested on: human non-small cell lung cancer cells; test: Clonogenic cell killing of lung cancer cells by ascorbate with chelators (cell line not given); format: cell-based
cancer cells = details: following exposure
NHA = details: FAS 3 h, washed, then ascorbate 1 h
Description: After treatment, cells were washed with PBS and clonogenic assay was completed in their respective media as previously described (Fath et al., 2011). Treatment conditions for individual experiments are as described in the figure legends and summarized in the Supplemental Experimental Procedures.
as §2, with “formation. After sufficient time (7-12 days, cell type-dependent), cells were fixed in 70% ethanol and stained with a Brilliant Blue methanol solution.” for “formation.”

NHAs = test: Cellular labile iron pool (Calcein-AM flow cytometry), NHAs; format: cell-based, human; details: 100 μM or 250 μM FAS for 3 h
Description: The labile iron pool (LIP) was visualized using the fluorescent dye Calcein-AM as previously described (Epsztejn et al., 1997) with modifications. After labeling, samples were divided into two flow cytometry sample tubes, to which 100 μM 2′,2′-bipyridyl (BIP) was added to one tube and analyzed by flow cytometry. BIP tubes were incubated for at least 15 minutes before analysis to allow for full chelation of intracellular labile iron. The LIP (A.U.)=MFIBIP−MFINoBIP was normalized against the control samples to calculate the relative labile iron pool.
The labile iron pool (LIP) was visualized using the fluorescent dye Calcein-AM as previously described with modifications (Epsztejn et al., 1997). Briefly, after sample treatment, cells were trypsinized, spun at 1,200 rpm for 5 min, and resuspended at approximately 1×10^6 cells mL-1 in 500 nM Calcein-AM in PBS. Samples were incubated for 15 min at 4% O2 in a humidity controlled environment (37° C., 5% CO2). Subsequently, samples were pelleted, washed in PBS, and resuspended in 1 mL PBS before dividing each sample into two flow cytometry sample tubes, to which 100 μM 2′,2′-bipyridyl (BIP) was added to one tube. Samples were kept at room temperature and analyzed on a LSR II Flow Cytometer (BD Biosciences; λex=488 nm, λem=515/20 nm). […]

U87 cells = test: Clonogenic survival assay, U87 GBM cells; format: cell-based, human; details: agent added before and/or during 1 h ascorbate exposure
Description: as §1, §2

U118 cells = test: Clonogenic survival assay, U118 GBM cells; format: cell-based, human; details: agent added before and/or during 1 h ascorbate exposure
Description: as §1, §2

O=CC[C@@H](O)[C@H](O)[C@H](O)CO [2-DG, 2-deoxy-D-glucose]
effect of the agent on ascorbate toxicity (clonogenic survival) (NCI-H292 cells): did not suppress ascorbate toxicity | effect of the agent on ascorbate toxicity (clonogenic survival) (H1299 cells): did not suppress ascorbate toxicity

O=C(O)CN(CCN(CC(=O)O)CC(=O)O)CC(=O)O [EDTA, ethylenediaminetetraacetic acid]
effect of EDTA on cytotoxicity of pharmacological ascorbate ([1]; EDTA 1 mM and greater, cell culture): significantly enhance the cytotoxicity of pharmacological ascorbate | enhanced ascorbate toxicity after EDTA pretreatment and wash-out ([1]; EDTA pretreatment followed by washing out): sufficient to get enhanced toxicity | clonogenic cell survival ([1]; high dose EDTA + pharmacological ascorbate + standard-of-care chemotherapy vs standard of care alone, two NSCLC cell lines): decreases clonogenic cell survival | effect of iron chelators on ascorbate toxicity / response to therapy (FIG. 8) ([1]; lung cancer cells treated with ascorbate and iron chelators): enhance responses to cancer therapy | effect of the intracellular agent on ascorbate toxicity (clonogenic survival) (NCI-H292 cells): enhanced ascorbate toxicity | cellular retention of 14C labeled EDTA (cancer cells): retained with cancer cells following exposure

O=S(=O)([O-])[O-].O=S(=O)([O-])[O-].[Fe+2].[NH4+].[NH4+] [FAS, ferrous ammonium sulfate]
effect of the intracellular agent on ascorbate toxicity (clonogenic survival) (NCI-H292 cells): sensitized cancer cells to ascorbate | effect of the agent on ascorbate toxicity (clonogenic survival) (NHA): sensitizes NHAs to ascorbate toxicity | cellular LIP after FAS (NHAs): increases the LIP

B1: PEG-catalase: polyethylene glycol conjugated catalase which converts H2O2 into H2O and O2 (conjugate, UniProt P00432 2-527, looked up)
Catalase: ADNRDPASDQMKHWKEQRAAQKPDVLTTGGGNPVGDKLNSLTVGPRGPLLVQDVVFTDEMAHFDRERIPERVVHAKGAGAFGYFEVTHDITRYSKAKVFEHIGKRTPIAVRFSTVAGESGSADTVRDPRGFAVKFYTEDGNWDLVGNNTPIFFIRDALLFPSFIHSQKRNPQTHLKDPDMVWDFWSLRPESLHQVSFLFSDRGIPDGHRHMNGYGSHTFKLVNANGEAVYCKFHYKTDQGIKNLSVEDAARLAHEDPDYGLRDLFNAIATGNYPSWTLYIQVMTFSEAEIFPFNPFDLTKVWPHGDYPLIPVGKLVLNRNPVNYFAEVEQLAFDPSNMPPGIEPSPDKMLQGRLFAYPDTHRHRLGPNYLQIPVNCPYRARVANYQRDGPMCMMDNQGGAPNYYPNSFSAPEHQPSALEHRTHFSGDVQRFNSANDDNVTQVRTFYLKVLNEEQRKRLCENIAGHLKDAQLFIQKKAVKNFSDVHPEYGSRIQALLDKYNEEKPKNAVHTYVQHGSHLSAREKANL
modifications: PEG conjugate
notes: polyethylene glycol conjugated catalase which converts H2O2 into H2O and O2
effect of the agent on ascorbate toxicity (clonogenic survival) (NCI-H292 cells): inhibited cancer cell killing by ascorbate

B2: catalase: exogenous bovine catalase, 50 U mL^−1, added with ascorbate (protein, UniProt P00432 2-527, looked up)
Catalase: ADNRDPASDQMKHWKEQRAAQKPDVLTTGGGNPVGDKLNSLTVGPRGPLLVQDVVFTDEMAHFDRERIPERVVHAKGAGAFGYFEVTHDITRYSKAKVFEHIGKRTPIAVRFSTVAGESGSADTVRDPRGFAVKFYTEDGNWDLVGNNTPIFFIRDALLFPSFIHSQKRNPQTHLKDPDMVWDFWSLRPESLHQVSFLFSDRGIPDGHRHMNGYGSHTFKLVNANGEAVYCKFHYKTDQGIKNLSVEDAARLAHEDPDYGLRDLFNAIATGNYPSWTLYIQVMTFSEAEIFPFNPFDLTKVWPHGDYPLIPVGKLVLNRNPVNYFAEVEQLAFDPSNMPPGIEPSPDKMLQGRLFAYPDTHRHRLGPNYLQIPVNCPYRARVANYQRDGPMCMMDNQGGAPNYYPNSFSAPEHQPSALEHRTHFSGDVQRFNSANDDNVTQVRTFYLKVLNEEQRKRLCENIAGHLKDAQLFIQKKAVKNFSDVHPEYGSRIQALLDKYNEEKPKNAVHTYVQHGSHLSAREKANL
effect of the agent on ascorbate toxicity (clonogenic survival) (U87 cells): inhibited | effect of the agent on ascorbate toxicity (clonogenic survival) (U118 cells): inhibited | effect of the agent on ascorbate toxicity (clonogenic survival) (NCI-H292 cells): inhibited | effect of the agent on ascorbate toxicity (clonogenic survival) (H1299 cells): inhibited
